# Activity calls are given as the source filed them.
# Columns and labels:
# Format in all cases: functional
# Caspase-3 = target: T1, Caspase-3 (Homo sapiens, UniProt P42574);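 further: Dose-response selectivity test against caspase-3 for candidate inhibitors of sentrin-specific proteases (SENPs)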
# T1 sequence (P42574 whole entry): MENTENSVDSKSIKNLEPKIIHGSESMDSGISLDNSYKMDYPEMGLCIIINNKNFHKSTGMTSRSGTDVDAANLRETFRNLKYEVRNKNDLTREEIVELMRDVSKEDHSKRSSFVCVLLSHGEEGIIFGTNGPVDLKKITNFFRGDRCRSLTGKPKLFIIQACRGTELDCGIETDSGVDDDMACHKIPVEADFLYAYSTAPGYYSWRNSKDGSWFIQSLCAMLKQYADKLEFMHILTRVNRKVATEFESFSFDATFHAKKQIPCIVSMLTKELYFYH
# [1] = target: T2, Sentrin-specific protease 8 (Homo sapiens, UniProt Q96LD8)
# T2 sequence (Q96LD8 whole entry): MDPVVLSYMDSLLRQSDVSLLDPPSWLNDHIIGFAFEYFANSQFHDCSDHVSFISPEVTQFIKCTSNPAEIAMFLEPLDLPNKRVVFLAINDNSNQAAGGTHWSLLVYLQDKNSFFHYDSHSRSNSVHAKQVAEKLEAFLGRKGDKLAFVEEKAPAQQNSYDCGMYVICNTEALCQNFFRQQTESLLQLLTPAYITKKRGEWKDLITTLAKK
# [2] = target: Mitochondrial peptide methionine sulfoxide reductase (Bos taurus, UniProt P54149); test: Absorbance-based biochemical high throughput dose response assay for activators of Methionine sulfoxide reductase A (MsrA).
# Chain of Mitochondrial peptide methionine sulfoxide reductase (P54149 whole entry): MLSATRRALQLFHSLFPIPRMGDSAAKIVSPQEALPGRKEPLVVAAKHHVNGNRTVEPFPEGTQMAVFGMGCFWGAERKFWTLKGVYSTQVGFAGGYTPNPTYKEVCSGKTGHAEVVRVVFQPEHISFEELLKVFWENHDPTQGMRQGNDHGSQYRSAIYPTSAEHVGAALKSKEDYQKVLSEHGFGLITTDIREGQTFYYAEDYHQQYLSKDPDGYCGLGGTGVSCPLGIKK
# [3] = target: T2, Sentrin-specific protease 8; remark: listed apart in the source
# [4] = target: T3, Sentrin-specific protease 7 (Homo sapiens, UniProt Q9BQF6);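 further: Luminescence-based dose-response confirmation of ultra-high-throughput screening hits, measuring inhibition of SENP7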
# T3 sequence (Q9BQF6 whole entry): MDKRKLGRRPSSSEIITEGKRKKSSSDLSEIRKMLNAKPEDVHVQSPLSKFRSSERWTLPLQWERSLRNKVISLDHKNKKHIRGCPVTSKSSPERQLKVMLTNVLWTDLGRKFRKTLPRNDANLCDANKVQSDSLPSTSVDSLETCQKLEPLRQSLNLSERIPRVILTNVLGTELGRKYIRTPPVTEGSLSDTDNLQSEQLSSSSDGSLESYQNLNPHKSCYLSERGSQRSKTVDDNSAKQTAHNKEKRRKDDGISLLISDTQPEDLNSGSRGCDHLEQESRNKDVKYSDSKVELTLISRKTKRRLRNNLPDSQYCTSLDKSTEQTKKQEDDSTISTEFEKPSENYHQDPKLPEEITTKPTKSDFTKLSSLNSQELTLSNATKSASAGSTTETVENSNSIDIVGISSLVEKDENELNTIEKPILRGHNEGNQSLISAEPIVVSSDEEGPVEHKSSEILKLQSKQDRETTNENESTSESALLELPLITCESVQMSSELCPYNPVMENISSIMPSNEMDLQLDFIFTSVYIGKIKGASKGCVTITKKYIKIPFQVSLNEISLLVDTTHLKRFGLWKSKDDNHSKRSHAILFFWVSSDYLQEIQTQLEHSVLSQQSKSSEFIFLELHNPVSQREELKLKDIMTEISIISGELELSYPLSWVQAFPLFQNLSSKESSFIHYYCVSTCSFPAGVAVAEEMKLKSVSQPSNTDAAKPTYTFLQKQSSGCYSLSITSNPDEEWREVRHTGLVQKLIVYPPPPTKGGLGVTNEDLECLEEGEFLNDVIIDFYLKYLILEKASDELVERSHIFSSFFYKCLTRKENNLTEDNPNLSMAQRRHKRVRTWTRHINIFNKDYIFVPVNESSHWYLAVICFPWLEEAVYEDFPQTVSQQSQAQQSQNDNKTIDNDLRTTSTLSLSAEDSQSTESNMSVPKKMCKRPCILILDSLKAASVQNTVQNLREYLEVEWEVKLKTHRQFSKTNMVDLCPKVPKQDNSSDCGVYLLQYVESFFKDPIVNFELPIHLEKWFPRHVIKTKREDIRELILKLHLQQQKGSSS
# [5] = target: T4, Sentrin-specific protease 6 (Homo sapiens, UniProt Q9GZR1);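 further: Luminescence-based dose-response confirmatory assay of SENP6 inhibition, following up an ultra-high-throughput screen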
# T4 sequence (Q9GZR1 whole entry): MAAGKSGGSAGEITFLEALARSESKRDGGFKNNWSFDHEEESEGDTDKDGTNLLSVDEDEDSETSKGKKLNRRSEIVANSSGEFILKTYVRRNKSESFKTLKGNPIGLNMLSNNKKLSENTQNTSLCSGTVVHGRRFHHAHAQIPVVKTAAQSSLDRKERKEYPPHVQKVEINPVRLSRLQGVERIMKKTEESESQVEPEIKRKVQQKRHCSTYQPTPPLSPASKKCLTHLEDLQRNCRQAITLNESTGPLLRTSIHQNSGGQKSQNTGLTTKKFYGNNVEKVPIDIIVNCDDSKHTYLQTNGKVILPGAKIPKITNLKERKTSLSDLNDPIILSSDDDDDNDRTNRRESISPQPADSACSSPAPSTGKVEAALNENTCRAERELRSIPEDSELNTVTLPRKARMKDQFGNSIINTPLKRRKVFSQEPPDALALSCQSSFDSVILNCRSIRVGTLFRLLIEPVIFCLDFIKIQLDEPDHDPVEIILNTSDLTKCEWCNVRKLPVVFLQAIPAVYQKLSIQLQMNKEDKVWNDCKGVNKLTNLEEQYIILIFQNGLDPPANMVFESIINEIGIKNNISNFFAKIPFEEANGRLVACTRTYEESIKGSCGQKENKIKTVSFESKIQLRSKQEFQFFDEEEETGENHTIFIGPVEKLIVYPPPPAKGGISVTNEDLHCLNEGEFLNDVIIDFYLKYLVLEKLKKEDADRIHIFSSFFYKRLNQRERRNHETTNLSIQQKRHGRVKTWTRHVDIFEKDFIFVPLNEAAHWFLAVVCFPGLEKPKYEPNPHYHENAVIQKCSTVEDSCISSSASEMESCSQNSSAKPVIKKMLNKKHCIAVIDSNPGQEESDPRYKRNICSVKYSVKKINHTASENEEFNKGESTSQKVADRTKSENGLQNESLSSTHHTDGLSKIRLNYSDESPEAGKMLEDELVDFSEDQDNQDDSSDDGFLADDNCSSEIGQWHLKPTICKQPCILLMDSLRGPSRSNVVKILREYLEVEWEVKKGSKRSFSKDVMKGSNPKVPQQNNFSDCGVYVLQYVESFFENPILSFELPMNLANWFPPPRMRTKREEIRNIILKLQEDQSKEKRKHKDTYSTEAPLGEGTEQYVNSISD
# [6] = THP-1 cell cytotoxicity, cytotoxicity control, set 4 (AID 504911); conditions: Mycobacterium tuberculosis
# [7] = target: T5, High affinity choline transporter 1 (Homo sapiens, UniProt Q9GZV3); test: human choline transporter radiolabel uptake blockers – cell-based, 3H-choline uptake, CHT LV-AA trafficking mutant, CRC, dose response (AID 602208)
# T5 sequence (Q9GZV3 whole entry): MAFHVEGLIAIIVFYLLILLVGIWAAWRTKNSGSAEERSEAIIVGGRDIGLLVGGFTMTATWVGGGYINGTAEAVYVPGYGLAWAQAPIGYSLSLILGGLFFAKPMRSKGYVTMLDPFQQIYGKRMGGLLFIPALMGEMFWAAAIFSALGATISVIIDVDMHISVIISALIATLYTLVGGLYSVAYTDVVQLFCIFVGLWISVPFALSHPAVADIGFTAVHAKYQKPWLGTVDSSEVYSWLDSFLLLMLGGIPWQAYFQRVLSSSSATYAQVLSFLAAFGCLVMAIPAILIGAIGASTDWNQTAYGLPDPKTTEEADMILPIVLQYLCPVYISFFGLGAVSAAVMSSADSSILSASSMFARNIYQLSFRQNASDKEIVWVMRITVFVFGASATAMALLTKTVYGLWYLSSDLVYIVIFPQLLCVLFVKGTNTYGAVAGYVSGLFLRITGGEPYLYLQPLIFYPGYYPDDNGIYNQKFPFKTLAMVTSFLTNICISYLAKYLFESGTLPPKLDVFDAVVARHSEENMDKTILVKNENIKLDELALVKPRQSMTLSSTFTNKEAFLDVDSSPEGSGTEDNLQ
# [8] = target: T5, High affinity choline transporter 1; test: human choline transporter blockers, potency – cell-based, 5-point CRC, membrane potential dye, dose response (AID 504840)
# [9] = target: T5, High affinity choline transporter 1; test: human choline transporter blockers, potency – cell-based, 10-point CRC, membrane potential dye, dose response (AID 588401);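 further: membrane potential dye fluorescence of choline-evoked depolarization via CHT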
# [10] = target: Ras and Rab interactor 1/Tyrosine-protein kinase ABL1 (Homo sapiens, UniProt P00519+Q13671);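 further: biochemical TR-FRET dose-response test measuring inhibition of binding between Rin1 and Abl proteins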
# Chain of Ras and Rab interactor 1/Tyrosine-protein kinase ABL1 (P00519 whole entry): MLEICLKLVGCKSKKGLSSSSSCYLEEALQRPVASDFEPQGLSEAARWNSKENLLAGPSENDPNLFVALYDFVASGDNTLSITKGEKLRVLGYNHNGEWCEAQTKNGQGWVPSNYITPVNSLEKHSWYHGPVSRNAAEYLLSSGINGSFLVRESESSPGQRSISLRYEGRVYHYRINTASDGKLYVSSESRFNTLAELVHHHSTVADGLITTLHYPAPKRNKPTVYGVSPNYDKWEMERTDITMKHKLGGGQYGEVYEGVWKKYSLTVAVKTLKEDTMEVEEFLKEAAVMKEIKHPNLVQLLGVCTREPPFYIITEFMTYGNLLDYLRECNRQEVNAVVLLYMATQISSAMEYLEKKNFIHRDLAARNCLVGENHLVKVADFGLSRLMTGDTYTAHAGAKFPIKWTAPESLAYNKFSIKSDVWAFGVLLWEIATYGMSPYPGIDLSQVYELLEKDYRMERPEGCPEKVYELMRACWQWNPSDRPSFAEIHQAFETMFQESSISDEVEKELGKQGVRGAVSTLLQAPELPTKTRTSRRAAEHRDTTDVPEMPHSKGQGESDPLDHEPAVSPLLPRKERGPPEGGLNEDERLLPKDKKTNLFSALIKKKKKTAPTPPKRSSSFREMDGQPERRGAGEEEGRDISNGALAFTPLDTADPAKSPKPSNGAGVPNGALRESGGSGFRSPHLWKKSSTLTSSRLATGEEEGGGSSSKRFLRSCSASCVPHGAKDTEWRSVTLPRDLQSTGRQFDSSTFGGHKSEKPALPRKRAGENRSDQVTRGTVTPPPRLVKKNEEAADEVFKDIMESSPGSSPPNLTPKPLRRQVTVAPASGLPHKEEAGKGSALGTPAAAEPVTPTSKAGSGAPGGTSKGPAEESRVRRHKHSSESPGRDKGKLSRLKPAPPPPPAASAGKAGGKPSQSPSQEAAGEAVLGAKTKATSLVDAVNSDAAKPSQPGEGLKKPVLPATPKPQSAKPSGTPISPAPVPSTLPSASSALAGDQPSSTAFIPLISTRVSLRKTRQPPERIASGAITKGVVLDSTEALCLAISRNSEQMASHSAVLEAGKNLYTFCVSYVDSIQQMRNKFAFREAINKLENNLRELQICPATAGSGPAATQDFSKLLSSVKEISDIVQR
# Chain of Ras and Rab interactor 1/Tyrosine-protein kinase ABL1 (Q13671 whole entry): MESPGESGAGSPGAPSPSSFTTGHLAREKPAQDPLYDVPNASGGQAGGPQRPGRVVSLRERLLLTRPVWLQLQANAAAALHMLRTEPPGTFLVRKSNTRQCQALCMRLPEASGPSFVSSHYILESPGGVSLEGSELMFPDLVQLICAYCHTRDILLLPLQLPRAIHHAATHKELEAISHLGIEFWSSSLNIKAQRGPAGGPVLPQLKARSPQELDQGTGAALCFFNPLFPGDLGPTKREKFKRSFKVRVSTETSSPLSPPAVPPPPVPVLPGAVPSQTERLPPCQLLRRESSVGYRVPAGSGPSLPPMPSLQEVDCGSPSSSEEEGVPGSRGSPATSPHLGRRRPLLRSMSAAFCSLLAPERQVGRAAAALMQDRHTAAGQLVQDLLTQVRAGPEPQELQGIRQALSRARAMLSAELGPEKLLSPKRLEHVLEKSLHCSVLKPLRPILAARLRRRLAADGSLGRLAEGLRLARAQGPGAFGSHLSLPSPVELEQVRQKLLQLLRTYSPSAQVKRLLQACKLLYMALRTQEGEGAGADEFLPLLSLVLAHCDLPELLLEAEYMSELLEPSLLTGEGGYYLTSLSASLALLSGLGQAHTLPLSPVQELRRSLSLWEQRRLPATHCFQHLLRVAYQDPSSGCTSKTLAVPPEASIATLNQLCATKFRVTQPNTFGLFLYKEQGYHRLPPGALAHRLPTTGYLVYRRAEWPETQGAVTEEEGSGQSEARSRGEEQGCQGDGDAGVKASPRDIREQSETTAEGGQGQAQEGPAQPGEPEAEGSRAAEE
# Aurora kinase B = Aurora kinase B (Homo sapiens, UniProt Q96GD4)
# Chain of Aurora kinase B (Q96GD4 whole entry): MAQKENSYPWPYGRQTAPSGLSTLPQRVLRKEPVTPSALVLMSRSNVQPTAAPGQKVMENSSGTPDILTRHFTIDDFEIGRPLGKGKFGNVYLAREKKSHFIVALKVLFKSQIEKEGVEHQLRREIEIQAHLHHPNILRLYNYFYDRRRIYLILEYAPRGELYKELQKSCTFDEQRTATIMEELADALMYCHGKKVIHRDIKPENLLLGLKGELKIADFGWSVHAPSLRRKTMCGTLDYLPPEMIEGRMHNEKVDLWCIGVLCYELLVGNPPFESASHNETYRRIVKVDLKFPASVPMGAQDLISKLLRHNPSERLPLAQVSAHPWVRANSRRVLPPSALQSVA
# Aurora kinase A = target: T6, Aurora kinase A (Homo sapiens, UniProt O14965);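 further: value from the Navigating the Kinome kinase panel profiling, panel entry STK6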
# T6 sequence (O14965 whole entry): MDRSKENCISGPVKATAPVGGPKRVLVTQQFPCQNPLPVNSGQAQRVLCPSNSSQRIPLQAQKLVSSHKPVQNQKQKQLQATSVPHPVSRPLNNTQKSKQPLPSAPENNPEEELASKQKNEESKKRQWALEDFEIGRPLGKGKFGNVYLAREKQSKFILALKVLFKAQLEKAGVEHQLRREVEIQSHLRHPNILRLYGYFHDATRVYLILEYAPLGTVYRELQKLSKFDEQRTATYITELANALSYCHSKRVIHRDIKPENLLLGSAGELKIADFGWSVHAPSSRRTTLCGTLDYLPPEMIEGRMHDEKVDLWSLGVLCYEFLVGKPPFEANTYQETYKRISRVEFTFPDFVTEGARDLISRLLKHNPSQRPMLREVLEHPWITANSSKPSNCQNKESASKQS
# [11] = target: Vascular endothelial growth factor receptor 2 (Homo sapiens, UniProt P35968)
# Chain of Vascular endothelial growth factor receptor 2 (P35968 whole entry): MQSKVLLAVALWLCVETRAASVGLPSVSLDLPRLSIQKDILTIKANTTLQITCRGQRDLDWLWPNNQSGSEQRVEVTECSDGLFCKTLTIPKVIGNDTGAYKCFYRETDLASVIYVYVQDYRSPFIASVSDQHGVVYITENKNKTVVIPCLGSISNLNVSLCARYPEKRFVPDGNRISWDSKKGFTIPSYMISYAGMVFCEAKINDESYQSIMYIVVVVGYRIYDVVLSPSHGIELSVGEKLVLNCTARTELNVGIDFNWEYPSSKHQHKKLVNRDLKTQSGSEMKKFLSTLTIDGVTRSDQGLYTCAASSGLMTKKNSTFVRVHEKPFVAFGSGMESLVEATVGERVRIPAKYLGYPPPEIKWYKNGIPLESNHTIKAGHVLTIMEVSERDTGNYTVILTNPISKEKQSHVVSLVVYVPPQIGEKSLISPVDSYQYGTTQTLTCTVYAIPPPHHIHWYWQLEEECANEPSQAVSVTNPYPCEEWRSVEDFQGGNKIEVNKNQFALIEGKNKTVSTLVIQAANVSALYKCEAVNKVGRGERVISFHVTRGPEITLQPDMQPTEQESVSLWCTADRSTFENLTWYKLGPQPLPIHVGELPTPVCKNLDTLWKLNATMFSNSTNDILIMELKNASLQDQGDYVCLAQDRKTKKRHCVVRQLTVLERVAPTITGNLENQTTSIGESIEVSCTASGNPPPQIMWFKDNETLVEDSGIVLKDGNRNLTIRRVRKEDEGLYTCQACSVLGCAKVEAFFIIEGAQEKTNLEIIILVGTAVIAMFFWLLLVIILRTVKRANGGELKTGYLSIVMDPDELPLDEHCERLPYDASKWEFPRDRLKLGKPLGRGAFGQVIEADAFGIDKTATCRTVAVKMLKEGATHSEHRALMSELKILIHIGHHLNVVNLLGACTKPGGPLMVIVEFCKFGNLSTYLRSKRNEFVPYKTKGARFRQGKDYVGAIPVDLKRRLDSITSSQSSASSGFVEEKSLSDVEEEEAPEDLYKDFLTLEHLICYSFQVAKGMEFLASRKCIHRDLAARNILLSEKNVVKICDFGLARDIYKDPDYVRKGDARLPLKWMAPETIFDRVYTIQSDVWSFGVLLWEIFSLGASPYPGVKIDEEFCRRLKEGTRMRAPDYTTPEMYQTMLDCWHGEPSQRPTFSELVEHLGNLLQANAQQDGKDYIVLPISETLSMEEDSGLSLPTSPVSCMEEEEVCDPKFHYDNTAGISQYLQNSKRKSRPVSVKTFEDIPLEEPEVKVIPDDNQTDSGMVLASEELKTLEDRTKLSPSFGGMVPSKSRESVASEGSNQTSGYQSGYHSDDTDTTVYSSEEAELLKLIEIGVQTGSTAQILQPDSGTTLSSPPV
structure (smiles),measurement,setting,value
O=C(OCC(=O)N1CCN(c2ccccc2)CC1)c1ccc([N+](=O)[O-])s1,IC50,Caspase-3,10.2 µM (active)
same,IC50,[1],2.31 µM (active)
same,EC50,[2],24.8 µM (inactive)
same,IC50,[3],5.37 µM (active)
same,IC50,[4],13.8 µM (active)
same,IC50,[5],6.71 µM (active)
CCSc1nc(C)c(C)c(O)n1,CC50,[6],> 100 µM (active)
CC(NC(=O)c1ccc(OC2CCN(Cc3ccccn3)CC2)cc1)c1ccccc1 (centres undefined),IC50,[7],1.79 µM (active)
same,IC50,[8],1.6 µM (active)
same,IC50,[9],1.26 µM (active)
N#Cc1ccccc1Sc1ccccc1C(=O)NCC(c1ccco1)N1CCCC1 (centres undefined),IC50,[10],2.48 µM (active)
COc1cc(Nc2ncc(C(F)(F)F)c(OC)n2)cc(OC)c1OC,Ki,Aurora kinase B,15.8 nM (active)
same,Ki,Aurora kinase A,50.1 nM (active)
same,Ki,[11],631 nM (active)
